Measured values reported in DBAASP.
≈ marks a conversion by molar mass, not a printed value.

What was measured:
Test in all cases: ≥ marks a high value that may be exact or a test limit, other limits are often not marked, values filed in µg/mL are converted to µM
[1] = tested on: Pseudomonas aeruginosa ATCC 9027
[2] = tested on: Escherichia coli ATCC 2592
[3] = tested on: Candida albicans ATCC 36232
[4] = tested on: Micrococcus luteus ATCC 9341
[5] = tested on: Staphylococcus aureus
[6] = tested on: Proteus vulgaris ATCC 6380
[7] = tested on: Staphylococcus aureus ATCC 6538
[8] = tested on: Pseudomonas aeruginosa NBRC 12582
[9] = tested on: Staphylococcus aureus NBRC 12732
[10] = tested on: Escherichia coli NBRC 14237
[11] = tested on: Vibrio alginolyticus KCCM 2928
[12] = tested on: Streptococcus parauberis KSP 28
[13] = tested on: Vibrio ordalii KCCM 41669
[14] = tested on: Vibrio campbellii KCCM 40684
[15] = tested on: Vibrio harveyi ATCC 14126
[16] = tested on: Edwardsiella piscicida FSW 910410
[17] = tested on: Streptococcus parauberis PH0710
[18] = tested on: Streptococcus iniae FP5228
[19] = tested on: Vibrio anguillarum TR14001NF
[20] = tested on: Staphylococcus haemolyticus 527
[21] = tested on: Staphylococcus aureus ST88
[22] = tested on: Bacillus subtilis 168 HT
[23] = tested on: Escherichia coli K12 MG1655
[24] = tested on: Candida viswanathii NBRC 10321
[25] = tested on: Micrococcus luteus NBRC 3333
[26] = tested on: Escherichia coli NBRC 3972
[27] = tested on: Aspergillus oryzae NBRC 100959
[28] = tested on: Staphylococcus epidermidis NBRC 12993
[29] = tested on: Pseudomonas putida NBRC 100650
[30] = tested on: Cutibacterium acnes PCM 2334
[31] = tested on: Escherichia coli ATCC 25922
[32] = tested on: Pseudomonas aeruginosa ATCC 27853
[33] = tested on: Staphylococcus epidermidis ATCC 12228
[34] = tested on: Staphylococcus aureus ATCC 25923
[35] = tested on: Cutibacterium acnes PCM 2400

CC(C)[C@H](NC(=O)[C@H](CCCCN)NC(=O)[C@@H]1CCCN1C(=O)[C@@H](NC(=O)[C@@H](NC(=O)[C@H](CCCCN)NC(=O)[C@@H](N)CCCCN)C(C)C)C(C)C)C(=O)N[C@@H](CCCCN)C(=O)N[C@@H](Cc1ccccc1)C(=O)N[C@@H](CCCCN)C(N)=O [KKVVPKVKFK]
MIC [1]: 83.3 µM (≈ 99.9 µg/mL) | MIC [2]: ≥ 83.3 µM | MIC [3]: ≥ 83.3 µM | MIC [4]: ≥ 83.3 µM | MIC [5]: > 83.3 µM | MIC [6]: ≥ 83.3 µM | MIC [7]: > 83.3 µM

CC(C)C[C@H](NC(=O)[C@@H](N)CCCCN)C(=O)N[C@@H](CCCCN)C(=O)N[C@H](C(=O)N[C@@H](Cc1c[nH]c2ccccc12)C(=O)N1CCC[C@H]1C(=O)N[C@@H](CCCCN)C(=O)N[C@@H](CC(N)=O)C(=O)N[C@@H](Cc1ccc(O)cc1)C(=O)N[C@@H](Cc1c[nH]c2ccccc12)C(=O)N[C@@H](CCCN=C(N)N)C(=O)N[C@@H](CCCCN)C(=O)N[C@H](C(=O)N[C@@H](Cc1c[nH]c2ccccc12)C(=O)N[C@@H](CO)C(=O)N[C@@H](CCCCN)C(=O)N[C@@H](CCCCN)C(=O)N[C@@H](CC(N)=O)C(=O)N[C@@H](Cc1c[nH]c2ccccc12)C(=O)N[C@@H](CCCN=C(N)N)C(=O)N[C@@H](CCCCN)C(=O)N[C@@H](Cc1ccccc1)C(=O)N[C@H](C(=O)N[C@@H](CCCCN)C(=O)N[C@@H](CCCCN)C(=O)N[C@@H](Cc1ccccc1)C(=O)N[C@@H](CCCCN)C(=O)N[C@@H](Cc1cnc[nH]1)C(=O)N[C@@H](Cc1c[nH]c2ccccc12)C(=O)O)C(C)C)C(C)C)[C@@H](C)O [KLKTWPKNYWRKVWSKKNWRKFVKKFKHW]
MIC [8]: 3.12 µM (≈ 12.4 µg/mL) | MIC [9]: 3.12 µM (≈ 12.4 µg/mL) | MIC [10]: 3.12 µM (≈ 12.4 µg/mL)

CC(C)C[C@H](NC(=O)[C@H](Cc1cnc[nH]1)NC(=O)CNC(=O)[C@@H]1CCCN1C(=O)[C@@H](NC(=O)[C@H](CCC(N)=O)NC(=O)[C@H](Cc1cnc[nH]1)NC(=O)[C@H](CC(C)C)NC(=O)[C@@H](NC(=O)[C@H](CCCCN)NC(=O)[C@@H]1CCCN1C(=O)[C@H](CC(C)C)NC(=O)[C@@H](N)Cc1ccc(O)cc1)C(C)C)[C@@H](C)O)C(=O)N[C@@H](CCCCN)C(=O)N1CCC[C@H]1C(=O)O [YLPKVLHQTPGHLKP]
MIC [11]: ≥ 289 µM | MIC [12]: ≥ 289 µM | MIC [13]: ≥ 289 µM | MIC [14]: ≥ 289 µM | MIC [15]: ≥ 51.1 µM | MIC [16]: ≥ 289 µM | MIC [17]: ≥ 205 µM | MIC [18]: ≥ 51.1 µM | MIC [19]: ≥ 289 µM

CC[C@H](C)[C@H](NC(=O)[C@H](CCCCN)NC(=O)[C@@H](NC(=O)[C@@H](N)Cc1ccccc1)C(C)C)C(=O)N[C@@H](CC(C)C)C(=O)N[C@@H](C)C(=O)N[C@@H](CCCCN)C(=O)N[C@@H](CC(C)C)C(=O)N[C@H](C(=O)N[C@@H](CC(N)=O)C(=O)N[C@@H](Cc1ccc(O)cc1)C(=O)N[C@@H](C)C(=O)N[C@@H](CCCCN)C(=O)N[C@@H](CC(N)=O)C(=O)O)C(C)C [FVKILAKLVNYAKN]
MIC [20]: ≥ 100 µM | MIC [21]: ≥ 100 µM | MIC [22]: 19.8 µM (≈ 32.1 µg/mL) | MIC [23]: ≥ 79 µM

CC[C@H](C)[C@H](NC(=O)[C@H](CCCCN)NC(=O)[C@H](CCCN=C(N)N)NC(=O)[C@H](CCC(=O)O)NC(=O)[C@H](CCC(=O)O)NC(=O)[C@H](CCSC)NC(=O)[C@@H](NC(=O)[C@H](CC(N)=O)NC(=O)[C@@H](N)CO)C(C)C)C(=O)N[C@@H](CCCCN)C(=O)N[C@H](C(=O)N[C@@H](Cc1ccc(O)cc1)C(=O)N[C@@H](CC(C)C)C(=O)N1CCC[C@H]1C(=O)N[C@@H](CCCN=C(N)N)C(=O)N[C@@H](CCSC)C(=O)N[C@@H](CCCCN)C(=O)N[C@@H](CCSC)C(=O)N[C@@H](CCC(=O)O)C(=O)N[C@@H](CCC(=O)O)C(=O)O)C(C)C [SNVMEERKIKVYLPRMKMEE]
MIC [24]: ≥ 319 µM | MIC [25]: ≥ 319 µM | MIC [26]: ≥ 319 µM | MIC [27]: ≥ 319 µM | MIC [28]: ≥ 319 µM | MIC [29]: ≥ 319 µM

CC(C)C[C@H](NC(=O)[C@H](CO)NC(=O)[C@H](CCCCN)NC(=O)[C@H](CO)NC(=O)[C@H](C)NC(=O)[C@H](Cc1ccccc1)NC(=O)[C@H](Cc1ccccc1)NC(=O)[C@H](CCCN=C(N)N)NC(=O)CNC(=O)[C@H](Cc1ccc(O)cc1)NC(=O)[C@H](CC(=O)O)NC(=O)[C@H](CS)NC(=O)[C@H](CCCN=C(N)N)NC(=O)[C@@H](N)CC(C)C)C(=O)N[C@@H](Cc1ccc(O)cc1)C(=O)N[C@@H](CC(=O)O)C(=O)N1CCC[C@H]1C(=O)N[C@@H](CC(C)C)C(=O)N[C@@H](CCCCN)C(=O)N[C@@H](CCCCN)C(=O)N[C@@H](CCCN=C(N)N)C(=O)N[C@@H](CCCN=C(N)N)C(=O)O [LRCDYGRFFASKSLYDPLKKRR]
MIC [30]: 11.5 µM (≈ 31.3 µg/mL) | MIC [31]: > 735 µM | MIC [32]: > 735 µM | MIC [33]: 91.9 µM (≈ 250 µg/mL) | MIC [34]: 91.9 µM (≈ 250 µg/mL) | MIC [35]: 23 µM (≈ 62.5 µg/mL)
